What is called IC50 is the concentration at which inhibition is half-maximal. By CLint scaled is commonly meant the rate of metabolic loss divided by the concentration. A higher CLint scaled goes with rapid turnover. As usually defined, the half-life is the time in which the quantity being followed falls by half. The low end stands for fast loss, the high end for slow loss.

One data set concerns the target HDAC2 (Homo sapiens, UniProt Q92769). In words: HDAC enzyme inhibitory activity, FRET method. It counts as biochemical.
The next data set has as its target HDAC3 (Homo sapiens, UniProt O15379). As to the kind of experiment: HDAC enzyme inhibitory activity, FRET method. It counts as biochemical.
Data set [1] can be described thus: Stability in liver microsomes. The following applies: for half-life at 1 µM / T1/2: 1 µM compound, 37 °C, NADPH regeneration system; for Clint: 1 µM. It counts as in vitro ADME. As to the method: After the 1 µM compound was individually incubated at 37 °C for various durations with […] liver microsomes from humans, monkeys, beagles, rats, or mice in the presence of an NADPH regeneration system, LC-MS-MS was used to analyze the remaining amount of the compound, and T1/2 was calculated. Table 10. Evaluation results of stability of compounds of the present disclosure in human and mouse liver microsomes
On the technique in general: Microsomes from liver hold many membrane-bound enzymes, among them those of drug oxidation.

A further data set addresses HDAC1 (Homo sapiens, UniProt Q13547). In words: HDAC enzyme inhibitory activity, FRET method. It counts as biochemical.
The next data set deals with 293T cell. As to the kind of experiment: Inhibition of cell proliferation (CTG, intracellular ATP). It counts as cell-based. Conditions: Homo sapiens, HEK-293T, 72 h. How it is done:
(§1) Jurkat or 293T cells were seeded into a 96-well plate at 3000 cells/well. After overnight adherence culture, the serially diluted compound in DMSO was added. After 72 h, the intracellular ATP level was determined by CTG. The IC50 for the inhibition of cell proliferation by the compounds was calculated compared to the DMSO group. Table 7. Inhibitory activity of compounds of the present disclosure against Jurkat/293T cell proliferation (IC50, µM)

A further data set has as its system Jurkat cell. Described as above. Conditions: 72 h. Type of data set: cell-based. How it is done: as §1
A further data set relates to H3K 27 Acetyl lysine. As to the kind of experiment: Intracellular H3K 27 acetyl lysine level by ELISA in HeLa cells. It counts as cell-based. Conditions: 24 h of treatment. How it is done:
(§2) HeLa cells were seeded into a 96-well plate at 20000 cells/well. After overnight adherence culture, the serially diluted compound was added. After 24 h of treatment, intracellular levels of acetyl lysine and H3K 27 acetyl lysine were quantified by ELISA. Table 8. Effect of compound of the present disclosure on levels of acetyl lysine and H3K 27 acetyl lysine
In general terms: In an ELISA, binding on a coated surface is turned into a signal by an enzyme label.

Another data set has as its system Acetyl lysine. In words: Intracellular acetyl lysine level by ELISA in HeLa cells. Type of data set: cell-based. The following applies: 24 h of treatment. How it is done:
as §2

Data set [2] relates to Mouse colon cancer MC38 cells. The following applies: MC-38.
Protocol: Female C57BL6N mice (aged 6 weeks, 18-22 g) were provided by Vital River Laboratory Animal Technology Co., Ltd. (China) and used one week after quarantine and acclimation. All animals were kept in a room at 23±2 °C with a relative humidity of 50±5%, artificial lighting was provided from 08:00 to 20:00 every day, and the air was exchanged 13-18 times per hour.
Mouse colon cancer MC38 cells were cultured conventionally in 1640 medium containing 10% fetal bovine serum in an incubator at 37 °C with 5% CO2. After being subcultured, the cells were collected when they reached the desired amount. The C57BL6N mice were subcutaneously injected with 2 × 10^6 MC38 cells on the right side to form tumors. After the tumors grew to about 100 mm^3, the animals were randomly grouped for administration. Tumor volumes were measured with a caliper on day 3, day 7, day 10, day 14, day 17, and day 21 after the administration. The ability of the compounds to inhibit tumor growth was evaluated according to the tumor growth inhibition rate (TGI) = 1 - (tumor volume on day 28 in treatment group - tumor volume on day 1 in treatment group)/(tumor volume on day 28 in control group - tumor volume on day 1 in control group). The toxicity of the compounds was evaluated according to the body weight and state of the mice.
The groups were as follows: 1) solvent control group; 2) PD-1+Reg group; 3) Compound 1 group; 4) Reference Compound group; 5) compound 1 (10mg/kg) and PD-1+Reg Combination group; 6) compound 1 (30mg/kg) and PD-1+Reg Combination group; 7) compound 1 (90mg/kg) and PD-1+Reg Combination group; 8) Reference Compound (10mg/kg) and PD-1+Reg Combination group; 9) Reference Compound (30mg/kg) and PD-1+Reg Combination group; 10) Reference Compound (90mg/kg) and PD-1+Reg Combination group, with 6 mice per group.
Reg represents Regorafenib PD-1 represents an anti-PD-1 antibody; IV represents administration via intravenous injection; PO represents oral administration; QD represents once-daily administration; QW represents once-weekly administration; CR represents complete remission (complete disappearance of the tumor after the dosing cycle is completed); PR represents partial response (tumor volume reduction exceeding 30% relative to the initial volume upon completion of the administration cycle); SD represents stable disease (tumor volume reduction or growth not exceeding 30% relative to the initial volume upon completion of the administration cycle); Died represents mouse died before the dosing cycle is completed; Administration period* is once daily (QD) for 10 consecutive days, followed by a 16-day off-treatment period; the once-weekly (QW) regimen is administered only on Day 1 and Day 8.
Data set [3] concerns Mouse colon cancer CT-26 cells. Conditions: for Tumor response, number of mice (CR/PR/SD): 6 mice per group; for TGI(%): QD for 14 consecutive days, PO.
Protocol: Female BALB/c mice (aged 6 weeks, 18-22 g) were provided by Vital River Laboratory Animal Technology Co., Ltd. (China) and used one week after quarantine and acclimation. All animals were kept in a room at 23±2 °C with a relative humidity of 50±5%, artificial lighting was provided from 08:00 to 20:00 every day, and the air was exchanged 13-18 times per hour.
Mouse colon cancer CT-26 cells were cultured conventionally in 1640 medium containing 10% fetal bovine serum in an incubator at 37 °C with 5% CO2. After being subcultured, the cells were collected when they reached the desired amount. The BALB/c mice were subcutaneously injected with 2 × 10^5 CT-26 cells on the right side to form tumors. After the tumors grew to about 100 mm^3, the animals were randomly grouped for administration. Tumor volumes were measured with a caliper on day 3, day 7, day 10, day 14, day 17, and day 21 after the administration. The ability of the compounds to inhibit tumor growth was evaluated according to the tumor growth inhibition rate (TGI) = 1 - (tumor volume on day 28 in treatment group - tumor volume on day 1 in treatment group)/(tumor volume on day 28 in control group - tumor volume on day 1 in control group). The toxicity of the compounds was evaluated according to the body weight and state of the mice.
For another data set, the target named is T1, HDAC10 (Homo sapiens, UniProt Q969S8).
T1 sequence (Q969S8 1-669): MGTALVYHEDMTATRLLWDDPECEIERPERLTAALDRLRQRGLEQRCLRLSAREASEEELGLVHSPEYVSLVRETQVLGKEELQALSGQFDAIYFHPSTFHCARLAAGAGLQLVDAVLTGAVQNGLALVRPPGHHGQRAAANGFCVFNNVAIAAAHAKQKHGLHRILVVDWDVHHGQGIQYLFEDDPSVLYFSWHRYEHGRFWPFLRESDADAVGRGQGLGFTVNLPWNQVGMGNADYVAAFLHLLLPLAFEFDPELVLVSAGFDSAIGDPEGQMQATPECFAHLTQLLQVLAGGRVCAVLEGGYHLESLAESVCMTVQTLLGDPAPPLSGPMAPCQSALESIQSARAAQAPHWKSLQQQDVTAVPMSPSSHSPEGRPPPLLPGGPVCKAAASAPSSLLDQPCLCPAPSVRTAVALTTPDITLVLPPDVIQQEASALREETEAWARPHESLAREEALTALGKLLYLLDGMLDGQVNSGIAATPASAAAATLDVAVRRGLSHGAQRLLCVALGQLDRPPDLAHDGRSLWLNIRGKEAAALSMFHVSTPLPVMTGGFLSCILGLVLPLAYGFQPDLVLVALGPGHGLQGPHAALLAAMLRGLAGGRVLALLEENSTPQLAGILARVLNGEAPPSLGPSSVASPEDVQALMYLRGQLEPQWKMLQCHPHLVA
Conditions: read-out: IC50 HDAC subtype 10; Table 6.

Like-named read-outs stand apart in the source and are kept apart here.

Sequence of HDAC2 (Q92769 whole entry, species assumed): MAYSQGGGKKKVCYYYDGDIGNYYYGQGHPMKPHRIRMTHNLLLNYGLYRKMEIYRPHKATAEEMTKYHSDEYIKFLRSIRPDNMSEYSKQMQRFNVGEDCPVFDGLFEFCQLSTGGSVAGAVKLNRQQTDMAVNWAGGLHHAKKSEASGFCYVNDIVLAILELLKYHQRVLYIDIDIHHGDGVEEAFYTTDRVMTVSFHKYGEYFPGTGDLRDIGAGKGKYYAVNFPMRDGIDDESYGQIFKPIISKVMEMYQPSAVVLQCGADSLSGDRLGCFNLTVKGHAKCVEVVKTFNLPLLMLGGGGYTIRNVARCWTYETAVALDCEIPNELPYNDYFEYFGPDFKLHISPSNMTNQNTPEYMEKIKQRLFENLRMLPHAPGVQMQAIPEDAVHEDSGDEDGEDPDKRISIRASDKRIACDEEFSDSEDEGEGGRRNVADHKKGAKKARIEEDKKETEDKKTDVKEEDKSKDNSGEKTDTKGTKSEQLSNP
Sequence of HDAC3 (O15379 whole entry, species assumed): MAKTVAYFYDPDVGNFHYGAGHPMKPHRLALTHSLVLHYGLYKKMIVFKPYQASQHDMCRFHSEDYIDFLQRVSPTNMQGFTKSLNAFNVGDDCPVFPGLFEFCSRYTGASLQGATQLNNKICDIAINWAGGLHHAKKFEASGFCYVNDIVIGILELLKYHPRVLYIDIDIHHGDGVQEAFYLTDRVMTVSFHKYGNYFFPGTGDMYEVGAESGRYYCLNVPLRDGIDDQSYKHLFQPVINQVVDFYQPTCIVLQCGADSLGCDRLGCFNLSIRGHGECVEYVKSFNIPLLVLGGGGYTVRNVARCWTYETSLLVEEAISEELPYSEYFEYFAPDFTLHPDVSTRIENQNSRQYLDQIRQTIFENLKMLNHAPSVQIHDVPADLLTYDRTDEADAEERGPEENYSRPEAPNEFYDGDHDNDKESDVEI
Sequence of HDAC3 (Q9Y618 395-489 partner limits assumed, species assumed): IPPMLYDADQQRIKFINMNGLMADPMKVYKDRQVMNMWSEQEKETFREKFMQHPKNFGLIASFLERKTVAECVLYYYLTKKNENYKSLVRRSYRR
Sequence of HDAC1 (Q13547 whole entry, species assumed): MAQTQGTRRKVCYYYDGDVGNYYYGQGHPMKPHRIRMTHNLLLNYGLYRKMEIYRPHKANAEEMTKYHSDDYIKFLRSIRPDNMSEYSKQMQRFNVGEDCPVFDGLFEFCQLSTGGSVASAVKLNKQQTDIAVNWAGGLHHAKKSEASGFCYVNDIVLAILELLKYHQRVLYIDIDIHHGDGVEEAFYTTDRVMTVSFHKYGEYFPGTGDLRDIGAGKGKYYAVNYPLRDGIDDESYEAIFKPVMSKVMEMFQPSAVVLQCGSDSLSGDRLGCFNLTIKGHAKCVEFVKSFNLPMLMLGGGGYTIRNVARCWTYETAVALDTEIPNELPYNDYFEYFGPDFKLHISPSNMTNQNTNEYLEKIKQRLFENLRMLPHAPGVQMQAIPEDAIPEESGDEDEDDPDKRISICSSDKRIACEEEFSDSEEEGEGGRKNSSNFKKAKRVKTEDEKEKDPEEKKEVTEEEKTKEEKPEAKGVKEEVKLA
Protocol for HDAC10: (§3) The compounds of the present disclosure were assayed for enzyme inhibitory activity against various subtypes of HDAC enzymes by the FRET method. The various subtypes of HDAC enzymes were obtained either through purification or direct purchase of assay kits.
(§4) The specific method was as follows: The enzyme was added to a 384-well plate, and a reaction buffer was added to the control well. Serially diluted DMSO sample solutions were added to the reaction wells, and the plate was incubated at room temperature for 15 min. Then a chromogenic agent was added to stop the reaction, and fluorescence was generated. The fluorescence intensity was measured using an EnVision multi-label microplate reader (excitation: 355 nm, emission: 460 nm). The endpoint value was read after the color development reached stability. The inhibition IC50 of the compounds was calculated using GraphPad Prism4 software relative to DMSO.
Protocol for HDAC2: as §3, §4
Protocol for HDAC3: as §3, §4

In the case of `CS(C)(=O)=Nc1ccc(C(=O)Nc2cc(-c3ccc(F)s3)ccc2N)cc1` [Compound 33], the IC50 on HDAC2 (Table 5, read-out: IC50 HDAC2) is 30 to 300 nM; at HDAC3 (Table 5, read-out: IC50 HDAC3), over 3000 nM; at HDAC1 (Table 5, read-out: IC50 HDAC1), under 30 nM. Further, the CLint scaled at 1 µM in [1] (Human liver microsomes) was determined as 8.26 mL/min/kg; in [1] (Mouse liver microsomes) it was 0.45 mL/min/kg. The Clliver turned out to be 5.91 mL/min/kg in data set [1] (Human liver microsomes) and 0.45 mL/min/kg in data set [1] (Mouse liver microsomes). Besides, the figures for the half-life at 1 µM in data set [1] (Human liver microsomes) and in data set [1] (Mouse liver microsomes) were 3.51 h and 201 h, respectively.

For `CN1CCS(=O)(=Nc2ccc(C(=O)Nc3cc(-c4ccc(F)cc4)ccc3N)cc2)CC1` [Compound 67], the IC50 at HDAC2 (Table 4, read-out: IC50 HDAC2) was under 500 nM; at HDAC2 (Table 5, read-out: IC50 HDAC2), 30 to 300 nM; on HDAC3 (Table 4, read-out: IC50 HDAC3), over 5000 nM; on HDAC3 (Table 5, read-out: IC50 HDAC3), over 3000 nM; in the data set with 293T cell, over 10000 nM; in the data set with Jurkat cell (Homo sapiens, Jurkat), 300 nM. The IC50 at HDAC1 (Table 4, read-out: IC50 HDAC1) is under 500 nM; on HDAC1 (Table 5, read-out: IC50 HDAC1), under 30 nM. Besides, in the data set on H3K 27 Acetyl lysine, the “H3K 27 Acetyl lysine Maximum (%)” value is reported as 300%. Besides, the “H3K 27 Acetyl lysine Minimum effective concentration” value with H3K 27 Acetyl lysine was 16 nM. The “Acetyl lysine Maximum (%)” value in the data set with Acetyl lysine is 570%. For the same compound, in the data set with Acetyl lysine, the “Acetyl lysine Minimum effective concentration” value was 16 nM.

As to `Nc1ccc(-c2ccc(F)cc2)cc1NC(=O)c1ccc(N=S2(=O)CCCC2)cc1` [Compound 57], the IC50 on HDAC2 (Table 5, read-out: IC50 HDAC2) is 30 to 300 nM; at HDAC3 (Table 5, read-out: IC50 HDAC3) it was over 3000 nM; on HDAC1 (Table 5, read-out: IC50 HDAC1), under 30 nM. In addition, the CLint scaled at 1 µM worked out at 7.51 mL/min/kg in data set [1] (Human liver microsomes) and 33 mL/min/kg in [1] (Mouse liver microsomes). Moreover, the Clliver in data set [1] (Human liver microsomes) was found to be 5.51 mL/min/kg; in data set [1] (Mouse liver microsomes), 24.16 mL/min/kg. Also, the half-life at 1 µM is 3.86 h in data set [1] (Human liver microsomes) and 2.75 h in data set [1] (Mouse liver microsomes).

Take `CS(=O)(=O)Nc1ccc(C(=O)Nc2cc(-c3ccc(F)cc3)ccc2N)cc1` [Reference Compound, N-(4-amino-4'-fluoro-[1,1'-biphenyl]-3-yl)-4-(S-methylsulfonamido) benzamide, reference compound]: the half-inhibitory concentration (IC50) at HDAC2 (Table 5, read-out: IC50 HDAC2) was 30 to 300 nM; on HDAC2 (Table 6, read-out: IC50 HDAC subtype 2) it was 178 nM; on HDAC3 (Table 5, read-out: IC50 HDAC3), over 3000 nM; on HDAC3 (Table 6, read-out: IC50 HDAC subtype 3) it was 8280 nM; in the data set with Jurkat cell it was 1940 nM; on HDAC10, 83.2 nM. The 50% inhibitory concentration (IC50) on HDAC1 (Table 5, read-out: IC50 HDAC1) was 30 to 300 nM; at HDAC1 (Table 6, read-out: IC50 HDAC subtype 1), 44.4 nM. The results for the “Change in body weight(%)” value in [2] (monotherapy 90 mg/kg QD PO), in data set [3] (monotherapy 30 mg/kg QD PO) and in data set [3] (monotherapy 90 mg/kg QD PO) were 17.04 ± 1.54%, 4.73±1.54% and -3.53±2.89%, respectively. For the same compound, the “Tumor response, number of mice (CR/PR/SD)” value in data set [2] (monotherapy 90 mg/kg QD PO, CR complete remission, PR partial response, SD stable disease, 6 mice per group) amounted to 1PR; in data set [3] (monotherapy 30 mg/kg QD PO), 1PR; in [3] (monotherapy 90 mg/kg QD PO), 1PR+2SD. Besides, the “TGI(%)” value in [2] (monotherapy 90 mg/kg, QD for 10 consecutive days, PO) is given as 73.90%; in [3] (monotherapy 30 mg/kg) it was 56.10%; in data set [3] (monotherapy 90 mg/kg), 95.93%. Besides, the “H3K 27 Acetyl lysine Maximum (%)” value in the data set on H3K 27 Acetyl lysine is 190%. Moreover, the “H3K 27 Acetyl lysine Minimum effective concentration” value with H3K 27 Acetyl lysine was found to be 80 nM. Further, the figures for the Clliver in [1] (Human liver microsomes) and in data set [1] (Mouse liver microsomes) were 11.68 mL/min/kg and 9.20 mL/min/kg, respectively. Moreover, the T1/2 in data set [1] (Human liver microsomes) amounted to 1.082 h; in data set [1] (Mouse liver microsomes), 8.874 h. For the same compound, the Clint is 26.78 mL/min/kg in [1] (Human liver microsomes) and 10.25 mL/min/kg in [1] (Mouse liver microsomes). Moreover, the “Acetyl lysine Maximum (%)” value in the data set on Acetyl lysine amounted to 350%. Moreover, the “Acetyl lysine Minimum effective concentration” value with Acetyl lysine was determined as 80 nM.

In the case of `CN1CC2(CCS(=O)(=Nc3ccc(C(=O)Nc4cc(-c5ccc(F)cc5)ccc4N)cc3)CC2)C1` [Compound 72], the IC50 on HDAC2 (Table 4, read-out: IC50 HDAC2) was under 500 nM; on HDAC2 (Table 5, read-out: IC50 HDAC2), 30 to 300 nM; at HDAC3 (Table 4, read-out: IC50 HDAC3), over 5000 nM; at HDAC3 (Table 5, read-out: IC50 HDAC3), over 3000 nM; on HDAC1 (Table 4, read-out: IC50 HDAC1), under 500 nM; on HDAC1 (Table 5, read-out: IC50 HDAC1), under 30 nM.

`CP(C)(=O)c1ccc(-c2ccc(N)c(NC(=O)c3ccc(N=S(C)(C)=O)cc3)c2)cc1` [Compound 6]: the IC50 is 500 to 5000 nM on HDAC2 (Table 4, read-out: IC50 HDAC2); over 5000 nM on HDAC3 (Table 4, read-out: IC50 HDAC3); 500 to 5000 nM on HDAC1 (Table 4, read-out: IC50 HDAC1).

As to `Cc1nn(C)cc1CN1CCS(=O)(=Nc2ccc(C(=O)Nc3cc(-c4ccc(F)cc4)ccc3N)cc2)CC1` [Compound 73], the IC50 was under 500 nM on HDAC2 (Table 4, read-out: IC50 HDAC2); 30 to 300 nM on HDAC2 (Table 5, read-out: IC50 HDAC2); over 5000 nM at HDAC3 (Table 4, read-out: IC50 HDAC3); over 3000 nM at HDAC3 (Table 5, read-out: IC50 HDAC3); under 500 nM on HDAC1 (Table 4, read-out: IC50 HDAC1); under 30 nM on HDAC1 (Table 5, read-out: IC50 HDAC1).

For the compound `CS(C)(=O)=Nc1ccc(C(=O)Nc2cc(-c3ccc(Cl)cc3)ccc2N)cc1` [Compound 3], the IC50 was under 500 nM on HDAC2 (Table 4, read-out: IC50 HDAC2); 30 to 300 nM on HDAC2 (Table 5, read-out: IC50 HDAC2); over 5000 nM on HDAC3 (Table 4, read-out: IC50 HDAC3); over 3000 nM at HDAC3 (Table 5, read-out: IC50 HDAC3); under 500 nM at HDAC1 (Table 4, read-out: IC50 HDAC1); under 30 nM on HDAC1 (Table 5, read-out: IC50 HDAC1). Besides, the values for the CLint scaled at 1 µM in data set [1] (Human liver microsomes) and in [1] (Mouse liver microsomes) were 1.85 mL/min/kg and 17.8 mL/min/kg, respectively. Further, the Clliver in [1] (Human liver microsomes) stood at 1.70 mL/min/kg; in data set [1] (Mouse liver microsomes) it was 14.87 mL/min/kg. The half-life at 1 µM in [1] (Human liver microsomes) is 15.7 h; in [1] (Mouse liver microsomes), 5.11 h.

As for `CS(C)(=O)=Nc1ccc(C(=O)Nc2cc(-c3ccccc3)ccc2N)cc1` [Compound 2], the IC50 was under 500 nM on HDAC2 (Table 4, read-out: IC50 HDAC2); over 5000 nM on HDAC3 (Table 4, read-out: IC50 HDAC3); under 500 nM at HDAC1 (Table 4, read-out: IC50 HDAC1).

For the origin of these results see patent EP4714938A1, “HDAC1/2 SELECTIVE INHIBITOR AND USE THEREOF” (Wigen Biomedicine Technology (Shanghai) Co., Ltd., priority 2023, dated 2024).
